Patent US20230114728A1 (Venatorx Pharmaceuticals, Inc., priority 2019, published 2023)
≈ marks a conversion by molar mass, not a printed value.

What was measured:
[1] = target: T1, E. coli K12 PBP3 (Escherichia coli, UniProt P0AD68); experiment: biochemical; format: binding
T1 construct: made in house
In short: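 A. baumannii PBP2 (2.5 μM) and PBP3 (0.2 μM) were run in 25 mM Tris pH 8.0 buffer with Tween 20; E. coli PBP3 (1.5 μM) and N. gonorrhoeae PBP2 ([…]) in 50 mM Hepes pH 8.0 buffer.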

[2] = target: T2, P. aeruginosa PBP3 (Pseudomonas aeruginosa, UniProt G3XD46); experiment: Bocillin-FL fluorescence polarization competition binding assay, P. aeruginosa PBP3; details: fluorescence polarization competition binding assay using Bocillin-FL
T2 construct: made in house
T2 sequence (G3XD46 whole entry): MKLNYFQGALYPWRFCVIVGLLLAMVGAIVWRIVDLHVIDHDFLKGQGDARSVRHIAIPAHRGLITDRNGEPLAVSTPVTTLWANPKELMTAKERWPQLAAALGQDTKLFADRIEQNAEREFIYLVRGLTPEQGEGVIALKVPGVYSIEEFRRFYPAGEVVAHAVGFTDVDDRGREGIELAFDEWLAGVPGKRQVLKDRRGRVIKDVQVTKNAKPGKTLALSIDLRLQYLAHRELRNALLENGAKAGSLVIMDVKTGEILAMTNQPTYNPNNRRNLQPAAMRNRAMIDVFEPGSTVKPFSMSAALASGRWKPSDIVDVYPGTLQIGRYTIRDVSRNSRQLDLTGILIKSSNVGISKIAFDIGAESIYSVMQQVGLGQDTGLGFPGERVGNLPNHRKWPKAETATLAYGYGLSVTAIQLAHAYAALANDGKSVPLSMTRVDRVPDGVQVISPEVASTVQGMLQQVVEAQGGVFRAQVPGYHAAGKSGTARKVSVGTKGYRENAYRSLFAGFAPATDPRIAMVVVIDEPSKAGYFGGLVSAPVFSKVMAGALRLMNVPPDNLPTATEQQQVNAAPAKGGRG
In short: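 Inhibitor competition with Bocillin-FL for P. aeruginosa PBP3 was followed by fluorescence polarization on a Cytation3 (BioTek) reader, using g-factor 0.96, 490 nm excitation and 520 nm emission. The enzyme was at 0.75 μM and the probe at 0.1 μM in Hepes/NaCl/glycerol buffer, 80 μl per well. FP was recorded immediately after probe addition for up to 60 minutes. Potency was expressed as EC50, the concentration that reduces bound probe by 50%.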

[3] = system: N. gonorrhoeae ATCC 49226; experiment: Liquid broth MIC in Fastidious broth; format: cell-based; details: Neisseria gonorrhoeae, ATCC49226; N. gonorrhoeae strain ATCC 49226; Fastidious broth; read-out: Minimum Inhibitory Concentration, N. gonorrhoeae ATCC 49226
In short: (§1)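 Colonies were swabbed from chocolate agar after 24 h growth and standardised by optical density at 600 nm. Compounds were serially diluted twofold in Fastidious broth, and bacteria added to give 5×10^5 CFU/mL. After about 24 h at 36 °C in 5% CO2, the lowest concentration allowing under 10% growth was taken as MIC.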

[4] = system: N. gonorrhoeae FA1090; experiment: Liquid broth MIC in Fastidious broth; format: cell-based; details: Neisseria gonorrhoeae; N. gonorrhoeae strain FA1090; Fastidious broth; read-out: Minimum Inhibitory Concentration, N. gonorrhoeae FA1090
In short: as §1

[5] = system: N. gonorrhoeae H041; experiment: Liquid broth MIC in Fastidious broth; format: cell-based; details: Neisseria gonorrhoeae, H041, read-out: Minimum Inhibitory Concentration, N. gonorrhoeae H041
In short: (§2)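 Broth microdilution in Fastidious broth with 2-fold compound series; inoculum from 24 h chocolate agar colonies, 5×10^5 CFU/mL start. Incubated ~24 hours at 36° C, 5% CO2. MIC read visually as lowest concentration giving <10% growth versus full-growth wells; strains carry mosaic PBP2.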

[6] = system: N. gonorrhoeae WHO G; experiment: Liquid broth MIC in Fastidious broth; format: cell-based; details: Neisseria gonorrhoeae; N. gonorrhoeae strain WHO G; Fastidious broth; read-out: Minimum Inhibitory Concentration, N. gonorrhoeae WHO G
In short: as §1

[7] = system: N. gonorrhoeae WHO K; experiment: Liquid broth MIC in Fastidious broth; format: cell-based; details: Neisseria gonorrhoeae, read-out: Minimum Inhibitory Concentration, N. gonorrhoeae WHO K
In short: as §2

[8] = system: N. gonorrhoeae WHO L; experiment: Liquid broth MIC in Fastidious broth; format: cell-based; details: Neisseria gonorrhoeae; N. gonorrhoeae strain WHO L; Fastidious broth; read-out: Minimum Inhibitory Concentration, N. gonorrhoeae WHO L
In short: as §1

[9] = system: N. gonorrhoeae WHO Q; experiment: Liquid broth MIC in Fastidious broth; format: cell-based; details: Neisseria gonorrhoeae, read-out: Minimum Inhibitory Concentration, N. gonorrhoeae WHO Q
In short: as §2

[10] = system: N. gonorrhoeae WHO Z; experiment: Liquid broth MIC in Fastidious broth; format: cell-based; details: Neisseria gonorrhoeae, read-out: Minimum Inhibitory Concentration, N. gonorrhoeae WHO Z
In short: as §2

T1 sequence (P0AD68 1-577): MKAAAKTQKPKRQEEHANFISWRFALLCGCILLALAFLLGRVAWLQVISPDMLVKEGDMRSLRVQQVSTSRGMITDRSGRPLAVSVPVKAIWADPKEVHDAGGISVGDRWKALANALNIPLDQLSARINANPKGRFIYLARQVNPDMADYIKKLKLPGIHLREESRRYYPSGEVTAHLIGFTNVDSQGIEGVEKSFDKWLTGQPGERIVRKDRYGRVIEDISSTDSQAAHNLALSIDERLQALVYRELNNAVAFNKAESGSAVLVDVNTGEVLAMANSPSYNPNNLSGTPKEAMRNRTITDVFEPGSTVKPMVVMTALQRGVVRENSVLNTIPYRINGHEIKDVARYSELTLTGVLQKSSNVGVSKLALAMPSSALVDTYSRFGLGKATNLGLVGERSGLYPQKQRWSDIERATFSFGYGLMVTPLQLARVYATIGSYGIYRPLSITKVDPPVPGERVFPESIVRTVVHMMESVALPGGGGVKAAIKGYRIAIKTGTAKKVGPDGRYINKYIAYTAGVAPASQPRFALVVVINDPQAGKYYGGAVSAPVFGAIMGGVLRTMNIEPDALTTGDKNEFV

CCN1CCN(C(=O)NC(C(=O)N[C@H]2Cc3cccc(C(=O)O)c3OB2O)c2cc(Cl)c(O)c(Cl)c2)C(=O)C1=O (stereo partly drawn) [Example 171, (3R)-3-(2-(3,5-dichloro-4-hydroxyphenyl)-2-(4-ethyl-2,3-dioxopiperazine-1-carboxamido)acetamido)-2-hydroxy-3,4-dihydro-2H-benzo[e][1,2]oxaborinine-8-carboxylic acid]
EC50 [1]: < 30 µM | P. aeruginosa PBP3 Potency [2]: D (D represents a potency <10 μM) | MIC [3]: 4 to 8 µg/mL (≈ 6.74 to 13.5 µM) | MIC [4]: 0.25 to 0.5 µg/mL (≈ 0.421 to 0.843 µM) | MIC [5]: 16 to 32 µg/mL (≈ 27 to 53.9 µM) | MIC [6]: 4 to 8 µg/mL (≈ 6.74 to 13.5 µM) | MIC [7]: 16 to 32 µg/mL (≈ 27 to 53.9 µM) | MIC [8]: > 64 µg/mL | MIC [9]: 16 to 32 µg/mL (≈ 27 to 53.9 µM) | MIC [10]: 4 to 8 µg/mL (≈ 6.74 to 13.5 µM)

CCN1CCN(C(=O)NC(C(=O)N[C@H]2Cc3cccc(C(=O)O)c3OB2O)c2cc(F)c(O)c(F)c2F)C(=O)C1=O (stereo partly drawn) [Example 172, (3R)-3-(2-(4-ethyl-2,3-dioxopiperazine-1-carboxamido)-2-(2,3,5-trifluoro-4-hydroxyphenyl)acetamido)-2-hydroxy-3,4-dihydro-2H-benzo[e][1,2]oxaborinine-8-carboxylic acid]
EC50 [1]: < 30 µM | P. aeruginosa PBP3 Potency [2]: D (D represents a potency <10 μM) | MIC [3]: 1 to 2 µg/mL (≈ 1.73 to 3.46 µM) | MIC [4]: < 0.125 µg/mL | MIC [5]: 16 to 32 µg/mL (≈ 27.7 to 55.3 µM) | MIC [6]: 0.25 to 0.5 µg/mL (≈ 0.432 to 0.865 µM) | MIC [7]: 4 to 8 µg/mL (≈ 6.92 to 13.8 µM) | MIC [8]: 4 to 8 µg/mL (≈ 6.92 to 13.8 µM) | MIC [9]: 4 to 8 µg/mL (≈ 6.92 to 13.8 µM) | MIC [10]: 1 to 2 µg/mL (≈ 1.73 to 3.46 µM)

CCN1CCN(C(=O)NC(C(=O)N[C@H]2Cc3cccc(C(=O)O)c3OB2O)c2ccc(O)c(F)c2F)C(=O)C1=O (some centres unmarked) [Example 173]
EC50 [1]: < 30 µM | P. aeruginosa PBP3 Potency [2]: D (D represents a potency <10 μM) | MIC [3]: 1 to 2 µg/mL (≈ 1.78 to 3.57 µM) | MIC [4]: < 0.125 µg/mL | MIC [5]: 16 to 32 µg/mL (≈ 28.6 to 57.1 µM) | MIC [6]: 1 to 2 µg/mL (≈ 1.78 to 3.57 µM) | MIC [7]: 16 to 32 µg/mL (≈ 28.6 to 57.1 µM) | MIC [8]: 16 to 32 µg/mL (≈ 28.6 to 57.1 µM) | MIC [9]: 16 to 32 µg/mL (≈ 28.6 to 57.1 µM) | MIC [10]: 4 to 8 µg/mL (≈ 7.14 to 14.3 µM)

NCCN1CCN(C(=O)NC(C(=O)N[C@H]2Cc3cccc(C(=O)O)c3OB2O)c2c(F)c(F)c(O)c(F)c2F)C(=O)C1=O (stereo partly drawn) [Example 174, (3R)-3-(2-(4-(2-aminoethyl)-2,3-dioxopiperazine-1-carboxamido)-2-(2,3,5,6-tetrafluoro-4-hydroxyphenyl)acetamido)-2-hydroxy-3,4-dihydro-2H-benzo[e][1,2]oxaborinine-8-carboxylic acid]
EC50 [1]: < 30 µM | P. aeruginosa PBP3 Potency [2]: D (D represents a potency <10 μM) | MIC [3]: 4 to 8 µg/mL (≈ 6.54 to 13.1 µM) | MIC [4]: 0.25 to 0.5 µg/mL (≈ 0.409 to 0.818 µM) | MIC [5]: > 64 µg/mL | MIC [6]: 1 to 2 µg/mL (≈ 1.64 to 3.27 µM) | MIC [7]: > 64 µg/mL | MIC [8]: 16 to 32 µg/mL (≈ 26.2 to 52.4 µM) | MIC [9]: 16 to 32 µg/mL (≈ 26.2 to 52.4 µM) | MIC [10]: 16 to 32 µg/mL (≈ 26.2 to 52.4 µM)

CCN1CCN(C(=O)NC(C(=O)N[C@H]2Cc3cccc(C(=O)O)c3OB2O)c2c(F)c(F)c(O)c(F)c2F)C(=O)C1=O (stereo partly drawn) [Example 175, (3R)-3-(2-(4-ethyl-2,3-dioxopiperazine-1-carboxamido)-2-(2,3,5,6-tetrafluoro-4-hydroxyphenyl)acetamido)-2-hydroxy-3,4-dihydro-2H-benzo[e][1,2]oxaborinine-8-carboxylic acid]
EC50 [1]: < 30 µM | P. aeruginosa PBP3 Potency [2]: D (D represents a potency <10 μM) | MIC [3]: 1 to 2 µg/mL (≈ 1.68 to 3.35 µM) | MIC [4]: < 0.125 µg/mL | MIC [5]: 4 to 8 µg/mL (≈ 6.71 to 13.4 µM) | MIC [6]: 0.25 to 0.5 µg/mL (≈ 0.419 to 0.839 µM) | MIC [7]: 1 to 2 µg/mL (≈ 1.68 to 3.35 µM) | MIC [8]: 4 to 8 µg/mL (≈ 6.71 to 13.4 µM) | MIC [9]: 1 to 2 µg/mL (≈ 1.68 to 3.35 µM) | MIC [10]: 1 to 2 µg/mL (≈ 1.68 to 3.35 µM)

CCN1CCN(C(=O)NC(C(=O)N[C@H]2Cc3cccc(C(=O)O)c3OB2O)c2c(F)cc(NS(N)(=O)=O)cc2F)C(=O)C1=O (stereo partly drawn) [Example 176, (3R)-3-(2-(2,6-difluoro-4-(sulfamoylamino)phenyl)-2-(4-ethyl-2,3-dioxopiperazine-1-carboxamido)acetamido)-2-hydroxy-3,4-dihydro-2H-benzo[e][1,2]oxaborinine-8-carboxylic acid]
EC50 [1]: < 30 µM | P. aeruginosa PBP3 Potency [2]: D (D represents a potency <10 μM) | MIC [3]: 4 to 8 µg/mL (≈ 6.27 to 12.5 µM) | MIC [4]: 0.25 to 0.5 µg/mL (≈ 0.392 to 0.783 µM) | MIC [5]: > 64 µg/mL | MIC [6]: 4 to 8 µg/mL (≈ 6.27 to 12.5 µM) | MIC [7]: > 64 µg/mL | MIC [8]: > 64 µg/mL | MIC [9]: > 64 µg/mL | MIC [10]: 16 to 32 µg/mL (≈ 25.1 to 50.1 µM)

NCCN1CCN(C(=O)NC(C(=O)N[C@H]2Cc3cccc(C(=O)O)c3OB2O)c2c(F)cc(NS(N)(=O)=O)cc2F)C(=O)C1=O (stereo partly drawn) [Example 177, (3R)-3-(2-(4-(2-aminoethyl)-2,3-dioxopiperazine-1-carboxamido)-2-(2,6-difluoro-4-(sulfamoylamino)phenyl)acetamido)-2-hydroxy-3,4-dihydro-2H-benzo[e][1,2]oxaborinine-8-carboxylic acid]
EC50 [1]: 30 to 500 µM | P. aeruginosa PBP3 Potency [2]: D (D represents a potency <10 μM) | MIC [3]: > 64 µg/mL | MIC [4]: 4 to 8 µg/mL (≈ 6.12 to 12.2 µM) | MIC [5]: > 64 µg/mL | MIC [6]: 16 to 32 µg/mL (≈ 24.5 to 49 µM) | MIC [7]: > 64 µg/mL | MIC [8]: > 64 µg/mL | MIC [9]: > 64 µg/mL | MIC [10]: > 64 µg/mL

NCCCN1CCN(C(=O)NC(C(=O)N[C@H]2Cc3ccc(F)c(C(=O)O)c3OB2O)c2c(F)cc(O)cc2F)C(=O)C1=O (stereo partly drawn) [Example 178, (3R)-3-(2-(4-(3-aminopropyl)-2,3-dioxopiperazine-1-carboxamido)-2-(2,6-difluoro-4-hydroxyphenyl)acetamido)-7-fluoro-2-hydroxy-3,4-dihydro-2H-benzo[e][1,2]oxaborinine-8-carboxylic acid]
EC50 [1]: < 30 µM | P. aeruginosa PBP3 Potency [2]: D (D represents a potency <10 μM) | MIC [3]: 16 to 32 µg/mL (≈ 26.3 to 52.7 µM) | MIC [4]: 4 to 8 µg/mL (≈ 6.59 to 13.2 µM) | MIC [5]: > 64 µg/mL | MIC [6]: 16 to 32 µg/mL (≈ 26.3 to 52.7 µM) | MIC [7]: > 64 µg/mL | MIC [8]: > 64 µg/mL | MIC [9]: > 64 µg/mL | MIC [10]: > 64 µg/mL
